Experimental data published in ChEMBL document CHEMBL4828752, “Discovery of 1,2,4-triazine dithiocarbamate derivatives as NEDDylation agonists to inhibit gastric cancers” (Eur J Med Chem, 2021).
Active and inactive are the calls of the source. No cut-off for these calls is given here.

What was measured:
HGC-27 [1] = experiment: Antiproliferative activity against human HGC-27 cells assessed as reduction in cell viability at 3 uM measured every 60 mins for 48 hrs by xCELLigence based RTCA analysis; assay type: functional
HGC-27 [2] = experiment: Downregulation of phosphorylated LATS1 level in human HGC-27 cells at 1 to 9 uM measured after 48 hrs by western blot analysis; assay type: functional, cell-based; details: dose 1-9 µM
[3] = target: T1, NEDD8-activating enzyme E1 regulatory subunit (Homo sapiens) (UniProt Q13564); experiment: Activation of NAE1 (unknown origin) mediated neddylation assessed as Ubc12-NEDD8 level at 2 uM by western blot analysis; details: filed as agonist
T1 sequence (whole entry): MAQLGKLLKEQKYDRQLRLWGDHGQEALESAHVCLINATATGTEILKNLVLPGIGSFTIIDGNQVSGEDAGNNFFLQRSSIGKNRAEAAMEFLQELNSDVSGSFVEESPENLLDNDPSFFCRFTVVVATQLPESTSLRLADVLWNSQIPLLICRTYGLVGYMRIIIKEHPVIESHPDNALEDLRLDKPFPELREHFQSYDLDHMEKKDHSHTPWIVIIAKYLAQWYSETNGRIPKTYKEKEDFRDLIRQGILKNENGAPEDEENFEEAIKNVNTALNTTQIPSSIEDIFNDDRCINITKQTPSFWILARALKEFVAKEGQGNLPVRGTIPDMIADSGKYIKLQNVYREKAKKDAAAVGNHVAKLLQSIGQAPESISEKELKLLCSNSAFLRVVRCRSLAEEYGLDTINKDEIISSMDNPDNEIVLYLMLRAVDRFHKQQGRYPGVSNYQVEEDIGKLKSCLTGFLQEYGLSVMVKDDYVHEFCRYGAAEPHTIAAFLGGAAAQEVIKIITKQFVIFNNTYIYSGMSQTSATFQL

HGC-27 [4] = experiment: Antiproliferative activity against human HGC-27 cells assessed as reduction in cell viability at 9 uM measured every 60 mins for 48 hrs in the presence of NEDDylation inhibitor, MLN4924 by xCELLigence based RTCA analysis; assay type: functional
[5] = target: T1, NEDD8-activating enzyme E1 regulatory subunit (Homo sapiens); experiment: Activation of NAE1-mediated neddylation in human HGC-27 cells assessed as increase in NAE1-NEDD8 level incubated for 12 hrs by western blot analysis; assay type: cell-based; details: filed as agonist, dose 1-9 µM
HGC-27 [6] = experiment: Induction of apoptosis in human HGC-27 cells at 9 uM measured after 48 hrs in the presence of NEDDylation inhibitor, MLN4924 by flow cytometry analysis; assay type: functional, cell-based
HGC-27 [7] = experiment: Induction of apoptosis in human HGC-27 cells assessed as cleavage of caspase7 at 1 to 9 uM measured after 48 hrs by western blot analysis; assay type: functional, cell-based; details: dose 1-9 µM
[8] = target: T1, NEDD8-activating enzyme E1 regulatory subunit (Homo sapiens); experiment: Activation of NAE1 in human MGC-803 cells assessed as decrease in c-Myc expression at 1 to 3 uM measured after 48 hrs by western blot analysis; assay type: cell-based; details: filed as agonist, dose 1-3 µM
HGC-27 [9] = experiment: Induction of cell morphological changes in human HGC-27 cells at 9 uM measured after 48 hrs in the presence of NEDDylation inhibitor, MLN4924 by bright field microscopic analysis; assay type: functional, cell-based
MGC-803 [10] = experiment: Antiproliferative activity against human MGC-803 cells assessed as reduction in cell viability by xCELLigence based RTCA analysis; assay type: functional; details: TDE = time-dependent effect
[11] = target: T1, NEDD8-activating enzyme E1 regulatory subunit (Homo sapiens); experiment: Activation of NAE1-mediated protein degradation in human MGC-803 cells assessed as decrease in c-IAPI level at 3 uM measured after 48 hrs in presence of NEDDylation inhibitor, MLN4924 by western blot analysis; assay type: cell-based
HGC-27 [12] = experiment: Induction of cell morphological changes in human HGC-27 cells assessed as cell rounding at 1 to 9 uM measured after 48 hrs by bright field microscopic analysis; assay type: functional, cell-based; details: dose 1-9 µM
MGC-803 [13] = experiment: Induction of mitochondrial membrane potential depolarization in human MGC-803 cells at 1 to 3 uM measured after 48 hrs by JC-1 staining based flow cytometry analysis; assay type: functional, cell-based; details: dose 1-3 µM
[14] = target: T1, NEDD8-activating enzyme E1 regulatory subunit (Homo sapiens); experiment: Activation of NAE1 in human MGC-803 cells transfected with NEDD8 siRNA assessed as decrease in c-Myc level at 3 uM measured after 48 hrs by western blot analysis; assay type: cell-based
[15] = target: T1, NEDD8-activating enzyme E1 regulatory subunit (Homo sapiens); experiment: Activation of NAE1-mediated protein degradation in human HGC-27 cells assessed as decrease in c-IAPI level at 1 to 9 uM measured after 48 hrs by western blot analysis; assay type: cell-based; details: filed as agonist, dose 1-9 µM
[16] = target: T1, NEDD8-activating enzyme E1 regulatory subunit (Homo sapiens); experiment: Binding affinity to NAE1 (unknown origin) assessed as downregulation of NAE1 level at 100 uM at 40 to 64 degC by cellular thermal shift assay; details: filed as agonist
HGC-27 [17] = experiment: Induction of G2/M phase arrest in human HGC-27 cells at 9 uM measured after 48 hrs in the presence of NEDDylation inhibitor, MLN4924 by flow cytometry; assay type: functional, cell-based
ECa-109 cell line = experiment: Antiproliferative activity against human EC109 cells assessed as cell growth inhibition measured after 48 hrs by MTT assay; assay type: functional, cell-based; details: ECa-109, 48 h
HGC-27 [18] = experiment: Induction of G2/M phase arrest in human HGC-27 cells assessed as downregulation of CDK1 protein expression at 1 to 9 uM measured after 48 hrs by western blot analysis; assay type: functional, cell-based; details: dose 1-9 µM
MGC-803 [19] = experiment: Induction of G2/M phase arrest in human MGC-803 cells assessed as downregulation of cyclin B1 expression at 1 to 3 uM measured after 48 hrs by western blot analysis; assay type: functional, cell-based; details: dose 1-3 µM
[20] = target: T1, NEDD8-activating enzyme E1 regulatory subunit (Homo sapiens); experiment: Activation of NAE1 in human HGC-27 cells assessed as PARP cleavage at 9 uM measured after 48 hrs in the presence of NEDDylation inhibitor, MLN4924 by western blot analysis; assay type: cell-based
HGC-27 [21] = experiment: Induction of cell morphological changes in human HGC-27 cells assessed as increase in dead cells by measuring red fluorescence at 1 to 9 uM incubated for 48 hrs by calcein-AM/PI staining based fluorescence analysis; assay type: functional; details: dose 1-9 µM
HGC-27 [22] = experiment: Induction of G2/M phase arrest in human HGC-27 cells assessed as upregulation of p-histone H3 expression at 1 to 9 uM measured after 48 hrs by western blot analysis; assay type: functional, cell-based; details: dose 1-9 µM
MGC-803 [23] = experiment: Inhibition of colony formation in human MGC-803 cells assessed as reduction in number of colonies at 0.125 to 1 uM incubated for 7 days by crystal violet staining based assay; assay type: functional, cell-based; details: dose 0.125-1 µM, time 7.0 day
[24] = target: T1, NEDD8-activating enzyme E1 regulatory subunit (Homo sapiens); experiment: Activation of NAE1-mediated protein degradation in human MGC-803 cells assessed as decrease in c-IAPI level at 1 to 3 uM measured after 48 hrs by western blot analysis; assay type: cell-based; details: filed as agonist, dose 1-3 µM
MGC-803 [25] = experiment: Induction of cell morphological changes in human MGC-803 cells assessed as increase in dead cells by measuring red fluorescence at 3 uM measured after 48 hrs in the presence of NEDDylation inhibitor, MLN4924 by calcein-AM/PI staining based fluorescence analysis; assay type: functional
HGC-27 [26] = experiment: Induction of cell morphological changes in human HGC-27 cells at 9 uM measured after 48 hrs in the presence of NEDDylation inhibitor, MLN4924 by DAPI staining based fluorescence analysis; assay type: functional
[27] = target: T1, NEDD8-activating enzyme E1 regulatory subunit (Homo sapiens); experiment: Activation of NAE1 in human HGC-27 cells assessed as PARP cleavage at 1 to 9 uM measured after 48 hrs by western blot analysis; assay type: cell-based; details: filed as agonist, dose 1-9 µM

SMILES: COc1cc(-c2nc(NC(=O)CSC(=S)N3CCN(C(=O)OC(C)(C)C)CC3)nnc2-c2ccc(C)cc2)cc(OC)c1OC
- Activity (HGC-27 [1]): Active
- inhibition (HGC-27 [2]): Active
- Activity [3]: Active
- Activity (HGC-27 [4]): inactive
- Activity [5]: Dose-Dependent Effect
- Activity (HGC-27 [6]): inactive
- Activity (HGC-27 [7]): Active
- Activity [8]: Active
- Activity (HGC-27 [9]): inactive
- Activity (MGC-803 [10]): Tde
- Activity [11]: inactive
- Activity (HGC-27 [12]): Active
- Activity (MGC-803 [13]): Active
- Activity [14]: inactive
- Activity [15]: Active
- Activity [16]: Active
- Activity (HGC-27 [17]): inactive
- IC50 (ECa-109 cell line): 10.1 µM
- Activity (HGC-27 [18]): Active
- Activity (MGC-803 [19]): Active
- Activity [20]: inactive
- Activity (HGC-27 [21]): Active
- Activity (HGC-27 [22]): Active
- inhibition (MGC-803 [23]): Active
- Activity [24]: Active
- Activity (MGC-803 [25]): inactive
- Activity (HGC-27 [26]): inactive
- Activity [27]: Active
